Test results taken from paper PMC7397269, “Synthesis and Evaluation of New Coumarin Derivatives as Antioxidant, Antimicrobial, and Anti-Inflammatory Agents” (Molecules, 2020).
In brackets after ≈: the same amount, converted by molar mass.

What was measured:
[1] = test system: Escherichia coli ATCC 2592; assay: Agar well diffusion, E. coli; format: cell-based; conditions: ATCC2592, 100 μL of 10 mg/mL in DMSO, read-out: diameter of inhibition zone, EC
From the text: (§1) The new molecules were individually tested for their antimicrobial activity in vitro against standard bacteria strains from the American Type Culture Collection (ATCC), namely, Staphylococcus aureus ATCC 29213, Bacillus subtilis ATCC 6633, Bacillus megaterium ATCC 9885 (Gram-positive), Escherichia coli ATCC 2592, and Pseudomonas aeruginosa ATCC 27,953 (Gram-negative). The compounds were also microbiologically tested against locally isolated Saccharomyces cerevisiae (yeast) and the standard Agricultural Research Service Culture Collection (NRRL) strain of the yeast-like pathogenic fungus Candida albicans NRRL Y-477. Primary screening was conducted using the agar well diffusion method using nutrient agar (NA) medium and Sabourand dextrose agar (SDA) medium for the tested pathological bacteria and yeast, respectively. […].
(§2) Antimicrobial tests were conducted via the agar well diffusion method using 100 μL of suspension containing 1 × 10^8 CFU/mL pathological tested bacteria and 1 × 10^6 CFU/mL yeast spread on NA and SDA, respectively. After the media cooled and solidified, wells (10 mm in diameter) were made in the solidified agar and loaded with 100 μL of the tested compound solution prepared by dissolving 10 mg of the chemical compound in 1 mL dimethyl sulfoxide (DMSO). The inoculated plates were then incubated for 24 h at 37 °C for bacteria and yeast growth. DMSO served as negative control. Ciprofloxacin (10 mg/mL) and ketoconazole (10 mg/mL) were used as standards for antibacterial and antifungal activity, respectively. After incubation, antimicrobial activity was evaluated by measuring the zone of inhibition against the test organisms and compared with that of the standard. Antimicrobial activities were expressed as the diameter of the inhibition zone (IZ) in mm. The experiment was carried out in triplicate and the average zone of inhibition was calculated.

trypsin = assay: Proteinase-inhibitory activity; format: biochemical; conditions: 250 µg/mL; mean ± SD (n = 3)
Experimental: The newly synthesised compounds were individually tested for their in vitro anti-inflammatory activity against proteinase enzyme. […] This test was performed at the Pharmacology Department, Medical Research Division, National Research Centre, Cairo, Egypt. Furthermore, compounds 2–8 were evaluated for their COX1/COX2 inhibitory activities.
The test was performed according to El-Serwy et al. with minor modifications. The reaction mixture (2 mL) contained 0.06 mg trypsin, 20 mM Tris HCl buffer (pH 7.4), and 1 mL test sample (250 µg/mL for each compound). After incubating for 5 min, 1 mL of 0.8% (w/v) casein was added. The mixture was incubated for an additional 20 min. The reaction was arrested by adding 1 mL of 10% perchloric acid. The cloudy suspension was centrifuged, and the absorbance of the supernatant was read at 280 nm. Reference standard aspirin was used as the positive control. The experiment was performed in triplicate. The percent inhibition of protein denaturation was calculated using the following Equation (2):(2) % Inhibition=100−A control −A test/A control×100 where Acontrol and Atest represent the absorbance of the control reaction without and with the sample, respectively.

COX-1 = target: T1, COX-1 (Homo sapiens, UniProt P23219); assay: COX-1 inhibition, Cayman assay kit; format: biochemical; conditions: mean of two determinations
T1 construct: purchased Cayman Chemical 701070
T1 sequence (P23219 24-599): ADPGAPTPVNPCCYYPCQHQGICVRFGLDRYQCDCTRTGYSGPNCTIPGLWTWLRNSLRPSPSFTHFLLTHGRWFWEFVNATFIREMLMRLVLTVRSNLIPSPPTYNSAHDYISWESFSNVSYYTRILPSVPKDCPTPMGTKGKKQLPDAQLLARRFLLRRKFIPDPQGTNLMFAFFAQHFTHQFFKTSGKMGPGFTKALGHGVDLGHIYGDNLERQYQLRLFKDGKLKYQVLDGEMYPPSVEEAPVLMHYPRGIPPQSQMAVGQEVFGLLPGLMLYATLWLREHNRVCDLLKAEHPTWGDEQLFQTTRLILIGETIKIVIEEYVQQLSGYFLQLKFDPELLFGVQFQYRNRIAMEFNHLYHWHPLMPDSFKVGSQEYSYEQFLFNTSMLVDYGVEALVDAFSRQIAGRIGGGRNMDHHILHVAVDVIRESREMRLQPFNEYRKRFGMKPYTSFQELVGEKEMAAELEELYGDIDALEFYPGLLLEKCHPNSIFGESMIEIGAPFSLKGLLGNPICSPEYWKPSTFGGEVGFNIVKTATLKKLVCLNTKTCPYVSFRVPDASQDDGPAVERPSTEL

[2] = test system: Saccharomyces cerevisiae local isolate; assay: MIC, two-fold serial dilution, S. cerevisiae; format: cell-based; conditions: read-out: Minimum inhibitory concentration, SC
From the text: as §1
(§3) The bacteriostatic activity of the active compounds (having IZ > 16 mm) was then evaluated using the two-fold serial dilution technique. Two-fold serial dilutions of the tested compounds solutions were prepared using the proper nutrient broth to reach final concentrations of 1000, 500, 250, and 125 μg/mL. The tubes were then inoculated with the test microorganisms grown in their suitable broth at 37 °C for 24 h (1 × 10^8 CFU/mL for bacteria and 1 × 10^6 CFU/mL of yeast), 0.1 mL of the above inoculum was administered per 5 mL, and the tubes were incubated at 37 °C for 24 h. The lowest concentration showing no growth was taken as the MIC.

COX-2 = target: T2, COX-2 (Homo sapiens, UniProt P35354); assay: COX-2 inhibition, Cayman assay kit; format: biochemical; conditions: for IC50: mean of two determinations; for SI, selectivity index (COX-1/COX-2): ratio of COX-1/COX-2 IC50
T2 construct: purchased Cayman Chemical 701080
T2 sequence (P35354 18-604): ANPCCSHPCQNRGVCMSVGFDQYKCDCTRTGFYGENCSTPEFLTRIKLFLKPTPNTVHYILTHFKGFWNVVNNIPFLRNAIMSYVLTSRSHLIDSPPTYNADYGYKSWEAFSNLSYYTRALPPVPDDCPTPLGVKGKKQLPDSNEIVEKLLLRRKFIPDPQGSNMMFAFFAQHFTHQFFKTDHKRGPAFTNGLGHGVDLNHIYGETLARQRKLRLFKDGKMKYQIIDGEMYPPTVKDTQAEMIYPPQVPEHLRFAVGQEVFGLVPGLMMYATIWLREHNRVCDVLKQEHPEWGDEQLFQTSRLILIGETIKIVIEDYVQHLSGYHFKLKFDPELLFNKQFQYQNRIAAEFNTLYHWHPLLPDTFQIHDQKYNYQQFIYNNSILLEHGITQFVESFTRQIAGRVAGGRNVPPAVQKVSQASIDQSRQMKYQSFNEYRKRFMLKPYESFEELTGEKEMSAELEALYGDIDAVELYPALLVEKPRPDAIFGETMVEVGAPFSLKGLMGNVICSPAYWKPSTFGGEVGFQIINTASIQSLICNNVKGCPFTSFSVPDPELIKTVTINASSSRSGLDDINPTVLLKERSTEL

[3] = test system: Pseudomonas aeruginosa ATCC 27,953; assay: Agar well diffusion, P. aeruginosa; format: cell-based; conditions: ATCC27, 100 μL of 10 mg/mL in DMSO, read-out: diameter of inhibition zone, PA
From the text: as §1, §2

[4] = DPPH antioxidant assay (radical scavenging); format: biochemical; conditions: mean ± SD (n = 3)
Experimental: The antioxidant effects of the synthesised compounds were assessed using the 2,2-diphenyl-1-picrylhydrazyl (DPPH) antioxidant assay. Table 1 summarises the antioxidant effects of the test samples and ascorbic acid except for compound 5b because it was produced in poor yield.
The radical scavenging activity of the synthesised compounds was measured using the DPPH microplate-based method. The absorbance was measured using a microplate/cuvette reader (Spectramax M5, Molecular Devices, San Jose, CA, USA). Reference standard ascorbic acid was utilised as the positive control for this assay. Test samples were prepared at a starting concentration of 200 μg/mL after mixing with 100 μL of 0.2 mM DPPH methanolic solution. […] Samples were incubated with DPPH in the dark for 30 min at room temperature (25 °C). The methanolic DPPH solution was prepared daily and stored in a flask covered with aluminium foil. DPPH radicals have an absorption maximum (λmax) at 515 nm, at which the absorbance values were measured and converted into a percentage of antioxidant activity.
The methanolic DPPH solution without antioxidants was used as a control, and samples in methanol alone served as a background control. IC50 was determined using GraphPad Prism 7 (GraphPad Software Inc., San Diego, CA, USA). The percent inhibition was calculated using the following Equation (1):(1) % Inhibition=100−Sample Absorbance −Sample background Absorbance/DPPH only Absorbance×100
The assay was carried out in triplicate and performed as much as possible in an area protected against light. The data points are presented as the mean ± standard deviation (SD, n = 3).

[5] = test system: Saccharomyces cerevisiae local isolate; assay: Agar well diffusion, S. cerevisiae; format: cell-based; conditions: read-out: diameter of inhibition zone, SC
From the text: as §1, §2

[6] = test system: Bacillus megaterium ATCC 9885; assay: Agar well diffusion, B. megaterium; format: cell-based; conditions: Priestia megaterium, ATCC9885, 100 μL of 10 mg/mL in DMSO, read-out: diameter of inhibition zone, BM
From the text: as §1, §2

[7] = test system: Candida albicans NRRL Y-477; assay: MIC, two-fold serial dilution, C. albicans; format: cell-based; conditions: NRRLY477, read-out: Minimum inhibitory concentration, CA
From the text: as §1, §3

[8] = test system: Staphylococcus aureus ATCC 29213; assay: Agar well diffusion, S. aureus; format: cell-based; conditions: ATCC29213, 100 μL of 10 mg/mL in DMSO, read-out: diameter of inhibition zone, SA
From the text: as §1, §2

[9] = test system: Bacillus subtilis ATCC 6633; assay: Agar well diffusion, B. subtilis; format: cell-based; conditions: ATCC6633, 100 μL of 10 mg/mL in DMSO, read-out: diameter of inhibition zone, BS
From the text: as §1, §2

[10] = test system: Candida albicans NRRL Y-477; assay: Agar well diffusion, C. albicans; format: cell-based; conditions: NRRLY477, 100 μL of 10 mg/mL in DMSO, read-out: diameter of inhibition zone, CA
From the text: as §1, §2

[11] = test system: Staphylococcus aureus ATCC 29213; assay: MIC, two-fold serial dilution, S. aureus; format: cell-based; conditions: ATCC29213, read-out: Minimum inhibitory concentration, SA
From the text: as §1, §3

Compound	zone of inhibition at 10000 µg/mL [1] [mm]	% Inhibition (proteinase) (trypsin) [%]	melting point [°C]	IC50 (COX-1) [µM]	MIC [2] [µg/mL]	IC50 (COX-2) [µM]	SI, selectivity index (COX-1/COX-2) (COX-2)	zone of inhibition at 10000 µg/mL [3] [mm]	IC50 [4] [µg/mL]	zone of inhibition at 10000 µg/mL [5] [mm]	zone of inhibition at 10000 µg/mL [6] [mm]	MIC [7] [µg/mL]	zone of inhibition at 10000 µg/mL [8] [mm]	zone of inhibition at 10000 µg/mL [9] [mm]	zone of inhibition at 10000 µg/mL [10] [mm]	MIC [11] [µg/mL]
Cc1ccc2oc(=O)c3c(c2c1)OC(N)=C(C(N)=O)C3c1ccco1 (racemic) [3b, (±)-2-Amino-4-(furan-2-yl)-9-methyl-5-oxo-4H,5H-pyrano[3,2-c]chromene-3-carboxamide]	16	49.28 ± 10.93	202 to 204	7.73	1000 (≈ 2960 µM)	2.45	3.16	16	48.38 ± 4.616 (≈ 143 µM)	17	< 15	1000 (≈ 2960 µM)	16	< 15	18	–
COc1cc(/C=N/C2=C(C#N)C(c3ccco3)c3c(c4cc(C)ccc4oc3=O)O2)cc(OC)c1OC (racemic) [5d, (±)-4-(furan-2-yl)-9-methyl-5-oxo-2-((3,4,5-trimethoxybenzylidene)amino)-4H,5H-pyrano[3,2-c]chromene-3-carbonitrile]	< 15	43.4 ± 1.52	248 to 250	27.2	1000 (≈ 2010 µM)	16	1.7	< 15	82.92 ± 3.300 (≈ 166 µM)	19	< 15	1000 (≈ 2010 µM)	18	< 15	19	1000 (≈ 2010 µM)
